Patent US12492380B2, “Methods for the production of hepatocytes” (FUJIFILM Cellular Dynamics, Inc., priority 2019, dated 2025)

Key:
iPSCs = test: CHIR99021 preconditioning/supplementation during iPSC to hepatocyte differentiation; type: cell-based, human; settings: supplementation midway through differentiation
Experimental: iPS cells were maintained on […] ® in E8 Medium under hypoxic conditions (5% 02), using 0.5 mM EDTA for splitting approximately every 4-5 days. The iPSC cultures were acclimatized to hypoxia for around 10 passages before the onset of hepatocyte differentiation. Starting iPS cell cultures were seeded at 15-20 k/cm^2 on […] ®-coated 6-well plates or T150 flasks. Two days after seeding, media was changed to preconditioning medium (PCM) and fed daily for two-three days. Endoderm induction was performed by placing the cells in media containing activin (DE Day 0 Medium, also referred to as T0 medium). On days 1-2, media was changed to DE Day 1-2 Medium (also referred to as T1-T2 medium) containing activin, along with low concentrations of BMP4, VEGF and FGF2 for the next two days. From day 3-9, media was changed to DE Day 3-9 (also referred to as T3-T6 medium) with the base medium SFD, supplemented with Activin, BMP4 and VEGF. On day 10, a sampling of the culture was performed for staining the percentage of definitive endoderm cells. […] Surface staining was performed to quantify the levels of Tra181, CXCR4, CD117 by flow cytometry. […]
Alternately, the cell individualized cell suspension was placed in media for aggregate formation. […] Intracellular staining to quantify the levels of AAT, ASGPR, Albumin, and matched isotypes was performed via flow cytometry. […]

iPSC-derived hepatocytes = test: Stage 3 maturation of thawed end of Stage 2 hepatocytes (morphology, AAT and albumin by flow cytometry); type: cell-based, human
Experimental: Thawing Cryopreserved hepatocytes at Stage 2 of differentiation and maturation to Stage 3 hepatocytes post thaw: Cryopreserved hepatocytes at the end of stage 2 were thawed in Stage 3 media. The cells were plated on Collagen I coated plates without spinning in the presence of a rock inhibitor. The media was gently changed at the end of 24 hours post plating. The maturation media contained SB/DAPT or Src kinase inhibitors and the cells were allowed to differentiate to additional 8-10 days with media exchanges every 48 hrs. The end stage cells were analyzed for hepatocyte morphology and the presence of AAT and albumin expression quantified by flow cytometry.
Generation of Liver organoids: Aggregates consisting of hepatocytes and other liver relevant cell types—specifically macrophages, MSC, and endothelial cells—designed to mimic liver organoid culture were established and maintained for 5-10 days. Aggregates were established in hepatocyte Stage 3 media (Table 2) supplemented with 1 μM of H1152, with the non-hepatocyte cells undergoing adaptation to Stage 3 media prior to initiation of co-cultures. For co-culture initiation, end of Stage 1 cells Hepatocytes were recovered from cryopreservation and aggregated at 500,000 cells/mL in Stage 2 media (Table 2) supplemented with 1 μM of rho kinase (rock) inhibitor H1152. […]

type I TGF-β receptors = settings: direct inhibition, unrelated to Src signaling; cited from earlier work
ZAP-70 = target: T1, ZAP-70 (Homo sapiens, UniProt P43403); settings: cited from earlier work
T1 sequence (P43403 1-619): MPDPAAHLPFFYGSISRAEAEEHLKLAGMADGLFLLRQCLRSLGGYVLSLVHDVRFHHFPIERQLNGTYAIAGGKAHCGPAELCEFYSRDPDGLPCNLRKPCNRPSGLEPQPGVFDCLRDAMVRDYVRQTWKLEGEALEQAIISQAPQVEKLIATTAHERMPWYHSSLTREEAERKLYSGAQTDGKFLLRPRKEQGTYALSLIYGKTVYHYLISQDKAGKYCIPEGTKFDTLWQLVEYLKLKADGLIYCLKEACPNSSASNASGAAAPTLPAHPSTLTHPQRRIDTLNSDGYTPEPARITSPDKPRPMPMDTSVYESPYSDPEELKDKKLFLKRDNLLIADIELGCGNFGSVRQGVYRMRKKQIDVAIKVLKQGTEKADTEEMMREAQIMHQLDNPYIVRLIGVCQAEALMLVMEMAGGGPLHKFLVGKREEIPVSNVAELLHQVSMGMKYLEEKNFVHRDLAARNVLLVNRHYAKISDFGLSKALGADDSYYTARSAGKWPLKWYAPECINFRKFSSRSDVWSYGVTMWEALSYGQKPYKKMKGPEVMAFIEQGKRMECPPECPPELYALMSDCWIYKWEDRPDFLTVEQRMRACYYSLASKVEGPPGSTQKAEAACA

With `Cc1c[nH]c(-c2cnc(NCCNc3ccc(C#N)cn3)nc2-c2ccc(Cl)cc2Cl)n1` [CHIR99021] the “expansion of cells during hepatoblast to hepatocyte transition” value (iPSCs) was “effective in promoting the expansion of cells”.

In the case of `Cc1ccc(-c2nn(C(C)(C)C)c3ncnc(N)c23)cc1` [PP1], the maturation of hepatocytes (iPSC-derived hepatocytes; PP1 substituted for SB431542/DAPT in Stage 3 maturation media, post thaw, preliminary data) is given as “facilitated the maturation of hepatocytes”, the “maturation of hepatocytes in co-culture” value (iPSC-derived hepatocytes; in the presence of MSCs, macrophages and endothelial cells) is given as “enhances the maturation of Hepatocytes” and the IC50 (type I TGF-β receptors) is given as 50 nM. The IC50 (ZAP-70) was at least 600 nM.
